# Test results reported in patent publication US20070060620A1, “Use of RAR retinoid agonists to increase sperm count and sperm mobility in males” (priority 2005, published 2007).
# How the values were obtained:
# [1] = test system: sperm count and sperm motility; details: oral retinoids used for psoriasis or acne; cited from earlier work
# [2] = phase 2 studies in patients with psoriasis and acne: systemic side-effect profile; type: in vivo, human; details: compared with acitretin/etretinate and isotretinoin
# [3] = plasma levels and half-life after clinical dosing with tazarotene; type: in vivo
# Excerpt: Thus, tazarotene and other RAR-specific retinoids are used in the method of the present invention to help with male infertility that is due to low sperm counts and/or low sperm motility. Furthermore, retinoids such as tazarotene may be used in any situation in which couples are trying to conceive, where a boost to sperm production/motility could bring about an increase in the chances that a female could become pregnant. As a practical matter, since retinoids at doses likely to be effective in these circumstances are highly teratogenic, an unintended effect might arise from the transfer of the retinoid to a female in the ejaculate of the male. […] Thus, in a period of 3 days, levels of retinoid in plasma (and also in seminal fluid) would be less than 2%, and after about one week would be less than 0.01% of the original levels. Clinical dosing with tazarotene (eg at 3-6 mg) provide levels of tazarotenic acid (the major metabolite of tazarotene) in plasma of about 75-150 ng/mL study. Thus, in 3 days, plasma levels would be expected to drop to about 2-3 ng/mL (endogenous levels of retinoid agonists such as tretinoin, isotretinoin and 4-oxo-13-cis retinoic acid may easily total over 6 ng/mL). Sperm count and motility are likely to remain elevated for some time, since sperm maturation occurs over a period of 72-74 days.
levels of retinoid in plasma (and also in seminal fluid) relative to the original levels ([3]; after about one week of washout),"half-life ([3]; human, plasma, read-out: effective half-life in plasma)",levels of retinoid in plasma (and also in seminal fluid) relative to the original levels ([3]; in a period of 3 days of washout),Structure (SMILES),effect on sperm count and sperm motility [1],systemic side-effect profile [2]
,,,COc1cc(C)c(/C=C/C(C)=C/C=C/C(C)=C/C(=O)O)c(C)c1C [acitretin],increase in sperm count and sperm motility,
,,,CC1=C(/C=C/C(C)=C/C=C/C(C)=C\C(=O)O)C(C)(C)CCC1 [isotretinoin],increase in sperm count and sperm motility,
,,,CCOC(=O)/C=C(C)/C=C/C=C(C)/C=C/c1c(C)cc(OC)c(C)c1C [etretinate],increase in sperm count and sperm motility,
less than 0.01%,7 to 12 h,less than 2%,CCOC(=O)c1ccc(C#Cc2ccc3c(c2)C(C)(C)CCS3)nc1 [tazarotene],,far better than those of acitretin/etretinate and isotretinoin
